From ChEMBL document CHEMBL1124178, “Nucleosides of 1,4-thiazin-3-one and derivatives as tetrahedral intermediate analogues of enzymes in pyrimidine nucleoside metabolism” (J Med Chem, 1988) come the findings set out here.

Common to all, as to format: functional
One assay relates to CCRF-CEM. As to the kind of experiment: In vitro inhibitory activity against the growth of CCRF-CEM human T lymphoblastic leukemia. Conditions: read-out: ID50 (the source's name).
Another assay relates to L1210. As to the kind of experiment: In vitro Inhibitory activity against the growth of L1210 murine lymphocytic leukemia. Conditions: Mus musculus, read-out: ID50 (the source's name).
The next assay is filed under the species Homo sapiens. As to the kind of experiment: In vitro Inhibitory activity against the growth of WIL-2 human B lymphoblastic leukemia.

`CC1=CSCC(=O)N1`: the IC50 in the assay with CCRF-CEM worked out at 35.5 µM; with L1210, 3000 nM. The compound also displayed an ID50 in the assay filed under Homo sapiens of 41.7 µM.
